Results reported in the NIST ThermoML archive (doi:10.1016/j.jct.2012.03.034).

Test: xn = mol fraction of the nth substance listed
Conditions: 101 kPa, Liquid; for viscosity: dual vibrating plate viscometer, AandD Co. Ltd Model SV-10; for speed of sound: Linear variable-path acoustic interferometer; for mass density: Vibrating tube method

CC[NH+](CC)CC.O=S(=O)([O-])O [triethylammonium hydrogen sulfate] + CN1CCCC1=O
Conditions	mass density, 308.15 K [kg/m3]	mass density, 313.15 K [kg/m3]	speed of sound, 308.15 K [m/s]	speed of sound, 313.15 K [m/s]	viscosity, 303.15 K [mPa·s]	viscosity, 308.15 K [mPa·s]	viscosity, 313.15 K [mPa·s]
x1 = 0.0115	1024.16	1019.77	1541	1535	–	1.08	1.97
x1 = 0.0234	1028.44	1023.04	1552	1547	–	0.73	0.71
x1 = 0.0632	1040.72	1034.66	1574	1573	–	–	0.73
x1 = 0.0927	1048.71	1043.09	1595	1592	–	–	0.2
x1 = 0.1387	1060.66	1055.07	1628	1624	–	–	–
x1 = 0.2259	1078.74	1072.51	1682	1681	–	–	1.97
x1 = 0.2631	1085.15	1079.29	1707	1706	–	7.75	7.8
x1 = 0.3261	1094.3	1088.65	1746	1748	–	23.71	22.1
x1 = 0.4478	1107.95	1102.48	1806	1809	–	66.53	60.67
x1 = 0.5947	1119.05	1114.67	1862	1865	–	116.6	104.9
x1 = 0.7717	1128.8	1125.81	1892	1894	–	161.59	142.04
x1 = 0.9017	1135.26	1133.51	1887	1884	175.33	165.14	141.04
x1 = 0.9497	1137.73	1136.49	1880	1878	168.86	156.95	131.02
x1 = 1	1140.72	1140.02	1866	1859	153	138	108
